For one assay, the system named is HCT116 cells. The assay is described as follows: HCT116 Cell Titer Glow assay (CTG). To be noted: Homo sapiens, HCT-116, 72 h; for IC50: read-out: CTG IC50 (nM) Cell Line: HCT116.20.
A further assay deals with IPC298 cells. Nature of the assay: IPC298 Cell Titer Glow assay (CTG). To be noted: Homo sapiens, IPC-298, 72 h; for IC50: read-out: CTG IC50 (nM) Cell Line: IPC298.2.

This is an account of results in patent US20250288571A1 (Nested Therapeutics, Inc., priority 2024, published 2025).

Experimental for HCT116 cells: (§1) HCT116 and IPC298 Cell Titer Glow Assay (CTG)
(§2) HCT116 cells and IPC298 cells were diluted with culture medium to the desired density 500 cells/well and 40 μL of cell suspension were added into each well of 384-well cell culture plate. […] The plates were covered and stored at room temperature for 30 minutes without shaking and then the plates were transferred into a 37° C. 5% CO2 incubator overnight.
(§3) A 10 mM solution in dimethyl sulfoxide (DMSO) was prepared for each test compound. A 3 fold, 10-point dilution was prepared from the stock solution. 40 nl of each solution in 100% DMSO was added to the 384-well plate and diluted to a final 0.1% DMSO final concentration. The plates were then incubated for 72 hours (for both cell lines) at 37° C.
(§4) CellTiter-Glo® 2.0 Reagent (Promega, G9242) was removed from the refrigerator and equilibrated at room temperature (23° C.) for 60 minutes. The plates were then removed from the incubator and allowed to equilibrate to room temperature. 30 μL CellTiter-Glo® 2.0 Reagent were added to the assay plates, and spun 1 min/1000 rpm. The plates were allowed to stand for about 20 minutes before being read on Envision using a standard luminescence readout. DMSO was employed as negative control (High control, HC) and 1 uM Staurosporine was employed as positive control (Low control, LC).
(§5) The percent (%) inhibition at each concentration of compound was calculated based on the signal in the negative and positive control wells contained within each assay plate.
Experimental for IPC298 cells: as §1, §2, §3, §4, §5

Broadly, the viability is a read-out of living cells in per cent, often relative to untreated cells. One may read the IC50 as the concentration needed to halve the response being measured. In the case of `CNS(=O)(=O)Nc1nccc(Cc2cncc(OC3CC4(C3)CN(C)C4)c2C)c1F` [Example 92, 3-fluoro-4-[[4-methyl-5-[(2-methyl-2-azaspiro[3.3]heptan-6-yl)oxy]-3-pyridyl]methyl]-N-(methylsulfamoyl)pyridin-2-amine], in the assay on HCT116 cells (read-out: CTG % cell viability 1000 uM HCT116.20), the viability at 1000 µM turned out to be 103%. Further, the IC50 in the assay with HCT116 cells and in the assay on IPC298 cells was over 1000 nM in each case. Besides, the viability at 100 µM with IPC298 cells (read-out: CTG % cell viability 100 uM IPC298.2) is 101%.
Take `CNS(=O)(=O)Nc1nccc(Cc2cncc(Oc3ccc(Cl)cc3F)c2C)c1OC` [Example 93, 4-[[5-(4-chloro-2-fluoro-phenoxy)-4-methyl-3-pyridyl]methyl]-3-methoxy-N-(methylsulfamoyl)pyridin-2-amine]: the IC50 in the assay with HCT116 cells was 10 to 100 nM; in the assay on IPC298 cells, under 10 nM.
The like results for `CNS(=O)(=O)Nc1nccc(Cc2cncc(Oc3ccc(OC)cc3F)c2C)c1F` [Example 94, 3-fluoro-4-[[5-(2-fluoro-4-methoxy-phenoxy)-4-methyl-3-pyridyl]methyl]-N-(methylsulfamoyl)pyridin-2-amine] were, in that order, 100 to 500 nM and under 10 nM.
For `CCNS(=O)(=O)Nc1nccc(Cc2cncc(Nc3ccc(C)cc3F)c2C)c1F` [Example 95, N-(ethylsulfamoyl)-3-fluoro-4-[[5-(2-fluoro-4-methyl-anilino)-4-methyl-3-pyridyl]methyl]pyridin-2-amine], the IC50 in the assay with HCT116 cells is 10 to 100 nM; in the assay on IPC298 cells, under 10 nM.
The corresponding values for `Cc1ccc(Nc2cncc(Cc3ccnc(NS(N)(=O)=O)c3F)c2C)c(F)c1` [Example 96, 3-fluoro-4-[[5-(2-fluoro-4-methyl-anilino)-4-methyl-3-pyridyl]methyl]-2-(sulfamoylamino)pyridine] are 10 to 100 nM and under 10 nM.
The like results for `CNS(=O)(=O)Nc1nccc(Oc2cncc(Nc3ccc(C4CC4)cc3F)c2C)c1F` [Example 97, 4-[[5-(4-cyclopropyl-2-fluoro-anilino)-4-methyl-3-pyridyl]oxy]-3-fluoro-N-(methylsulfamoyl)pyridin-2-amine] were, in that order, under 10 nM and under 10 nM.
The corresponding values for `CNS(=O)(=O)Nc1nccc(Cc2cncc(Oc3ccc(C4CC4)cc3F)c2C)c1F` [Example 99, 4-[[5-(4-cyclopropyl-2-fluoro-phenoxy)-4-methyl-3-pyridyl]methyl]-3-fluoro-N-(methylsulfamoyl)pyridin-2-amine] are under 10 nM and under 10 nM.
For the compound `CNS(=O)(=O)Nc1nccc(Oc2cncc(Oc3ccc(Br)cc3F)c2C)c1F` [Example 100, 4-[[5-(4-bromo-2-fluoro-phenoxy)-4-methyl-3-pyridyl]oxy]-3-fluoro-N-(methylsulfamoyl)pyridin-2-amine], the results for the IC50 with HCT116 cells and with IPC298 cells were 10 to 100 nM and under 10 nM, respectively.
The corresponding values for `[2H]C([2H])([2H])c1ccc(Oc2cncc(Cc3ccnc(NS(=O)(=O)NC)c3F)c2C)c(F)c1` [Example 101, 3-fluoro-4-[[5-[2-fluoro-4-(trideuteriomethyl)phenoxy]-4-methyl-3-pyridyl]methyl]-N-(methylsulfamoyl)pyridin-2-amine] are 10 to 100 nM and under 10 nM.
The corresponding values for `CNS(=O)(=O)Nc1nccc(Oc2cncc(Oc3ccc(C4CC4)cc3F)c2C)c1F` [Example 102, 4-[[5-(4-cyclopropyl-2-fluoro-phenoxy)-4-methyl-3-pyridyl]oxy]-3-fluoro-N-(methylsulfamoyl)pyridin-2-amine] are 10 to 100 nM and under 10 nM.
For `CNS(=O)(=O)Nc1nccc(Cc2cncc(Oc3ccc(C)c(F)c3)c2C)c1F` [Example 103, 3-fluoro-4-[[5-(3-fluoro-4-methyl-phenoxy)-4-methyl-3-pyridyl]methyl]-N-(methylsulfamoyl)pyridin-2-amine], the IC50 is 100 to 500 nM in the assay with HCT116 cells and under 10 nM in the assay on IPC298 cells.
